Results as given in patent publication US20260109732A1, “LIPID AMINES” (ModernaTX, Inc., priority 2021, published 2026).
Where a name gives a salt, the structure may show the parent alone.

Legend:
HeLa cells [1] = test: CFTR Protein Expression Assay in HeLa Cells; assay type: cell-based, Human; conditions: LNPs encapsulating CFTR mRNA, N=4 wells; 5 h serum-free then 24 h; immunofluorescence vs PBS control
How it was run: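 Readout is fold-change in per-cell CFTR immunofluorescence intensity (488 nm, confocal imaging) relative to PBS-treated cells, from 4 replicate wells. LNPs encapsulating CFTR mRNA were applied serum-free for 5 h, followed by 24 h in complete medium before PFA fixation.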

[2] = Diameter and PDI from DLS measurements of mRNA nanoparticles with lipid amines; assay type: physicochemical
How it was run: (§1)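 DLS gave size and PDI, and Ribogreen gave encapsulation, for luciferase- or CFTR-mRNA nanoparticles (N:P 4.93). Particles came from IL1/DSPC/cholesterol/PEG-DMG-2K mixed at pH 4, mRNA-loaded, neutralized with TRIS pH 8.12, and then treated with lipid amine SA50 in pH 7.5 buffer.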

HeLa cells [3] = test: Luciferase Protein Expression Assay in HeLa Cells; assay type: cell-based, Human; conditions: LNPs encapsulating Luciferase mRNA, 25 ng per well, N=4 wells; 5 h serum-free then 24 h; ONE-Glo
How it was run: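 Luminescence output, average RLU across N=4 wells, was measured with ONE-Glo after cell lysis. Before that, HeLa cells were exposed to 25 ng/well luciferase-mRNA nanoparticles (PBS control) for 5 h serum-free, then cultured overnight (24 h) in complete MEM.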

[4] = Encapsulation of mRNA nanoparticles with lipid amines using Ribogreen assay; assay type: physicochemical
How it was run: as §1

[5] = CFTR mRNA nanoparticle with lipid amine
[6] = Luciferase mRNA nanoparticle modified with lipid amine

SMILES | Average fold-change in CFTR signal intensity per cell compared to buffer control ± standard deviation (HeLa cells [1]) | Diameter (nm) [2, 5] | PDI [2, 5] | Diameter (nm) [2, 6] | PDI [2, 6] | Average Relative Light Units ± Standard Deviation (HeLa cells [3]) | % Encapsulation (Ribogreen) [4, 5] | % Encapsulation (Ribogreen) [4, 6]
CC(C)CCC[C@@H](C)[C@H]1CC[C@H]2[C@@H]3CC=C4C[C@@H](OC(=O)N(CCCC(C)(C)N)CCC(C)(C)N)CC[C@]4(C)[C@H]3CC[C@]12C [SA157, (3S,8S,9S,10R,13R,14S,17R)-10,13-dimethyl-17-((R)-6-methylheptan-2-yl)-2,3,4,7,8,9,10,11,12,13,14,15,16,17-tetradecahydro-1H-cyclopenta[a]phenanthren-3-yl (3-amino-3-methylbutyl)(4-amino-4-methylpentyl)carbamate dihydrochloride] | 15.9 ± 1.4 fold-change | 73.9 nm | 0.16 | 75 nm | 0.13 | 24130.4 ± 4741.7 Relative Light Units | 99.8% | 99.6%
CC(C)CCC[C@@H](C)[C@H]1CC[C@H]2[C@@H]3CC=C4C[C@@H](OC(=O)N(CCC(C)(C)N)CCC(C)(C)N)CC[C@]4(C)[C@H]3CC[C@]12C [SA158, (3S,8S,9S,10R,13R,14S,17R)-10,13-dimethyl-17-((R)-6-methylheptan-2-yl)-2,3,4,7,8,9,10,11,12,13,14,15,16,17-tetradecahydro-1H-cyclopenta[a]phenanthren-3-yl bis(3-amino-3-methylbutyl)carbamate dihydrochloride] | 20.4 ± 1.3 fold-change | 72.4 nm | 0.15 | 79 nm | 0.28 | 33097.8 ± 7405.1 Relative Light Units | 98.3% | 99.7%
CC(C)CCC[C@@H](C)[C@H]1CC[C@H]2[C@@H]3CC=C4C[C@@H](OC(=O)CCC(=O)N(CCCCNCCC(C)N)CCC(C)N)CC[C@]4(C)[C@H]3CC[C@]12C (stereo partly drawn) [SA160, (3S,8S,9S,10R,13R,14S,17R)-10,13-dimethyl-17-((R)-6-methylheptan-2-yl)-2,3,4,7,8,9,10,11,12,13,14,15,16,17-tetradecahydro-1H-cyclopenta[a]phenanthren-3-yl 4-((3-aminobutyl)(4-((3-aminobutyl)amino)butyl)amino)-4-oxobutanoate trihydrochloride] | 18.2 ± 1.4 fold-change | 77.4 nm | 0.15 | 75 nm | 0.11 | 19694.4 ± 6954.5 Relative Light Units | 98.1% | 99.7%
CC[C@H](CC[C@@H](C)[C@H]1CC[C@H]2[C@@H]3CC=C4C[C@@H](OC(=O)CCC(=O)N(CCCCNCCC(C)(C)N)CCC(C)(C)N)CC[C@]4(C)[C@H]3CC[C@]12C)C(C)C [SA161, (3S,8S,9S,10R,13R,14S,17R)-17-((2R,5R)-5-ethyl-6-methylheptan-2-yl)-10,13-dimethyl-2,3,4,7,8,9,10,11,12,13,14,15,16,17-tetradecahydro-1H-cyclopenta[a]phenanthren-3-yl 4-((3-amino-3-methylbutyl)(4-((3-amino-3-methylbutyl)amino)butyl)amino)-4-oxobutanoate trihydrochloride] | 14.1 ± 1.5 fold-change | 74.2 nm | 0.15 | 77 nm | 0.16 | 17839.3 ± 7760 Relative Light Units | 99.6% | 99.6%
CC(C)CCC[C@@H](C)[C@H]1CC[C@H]2[C@@H]3CC=C4C[C@@H](OC(=O)CCC(=O)N(CCCCCCCC(C)N)CCC(C)N)CC[C@]4(C)[C@H]3CC[C@]12C (stereo partly drawn) [SA162, (3S,8S,9S,10R,13R,14S,17R)-10,13-dimethyl-17-((R)-6-methylheptan-2-yl)-2,3,4,7,8,9,10,11,12,13,14,15,16,17-tetradecahydro-1H-cyclopenta[a]phenanthren-3-yl 4-((3-aminobutyl)(8-aminononyl)amino)-4-oxobutanoate dihydrochloride] | 21.3 ± 0.6 fold-change | 75.4 nm | 0.16 | 75 nm | 0.15 | 34454.6 ± 3101.8 Relative Light Units | 98.6% | 99.4%
CC[C@H](CC[C@@H](C)[C@H]1CC[C@H]2[C@@H]3CC=C4C[C@@H](OC(=O)CCC(=O)N(CCCCCCCC(C)N)CCC(C)N)CC[C@]4(C)[C@H]3CC[C@]12C)C(C)C (stereo partly drawn) [SA163, (3S,8S,9S,10R,13R,14S,17R)-17-((2R,5R)-5-ethyl-6-methylheptan-2-yl)-10,13-dimethyl-2,3,4,7,8,9,10,11,12,13,14,15,16,17-tetradecahydro-1H-cyclopenta[a]phenanthren-3-yl 4-((3-aminobutyl)(8-aminononyl)amino)-4-oxobutanoate dihydrochloride] | 11.3 ± 0.5 fold-change | 70.6 nm | 0.09 | 71 nm | 0.17 | 30168 ± 7878.9 Relative Light Units | 100% | 99.1%
CC(C)CCC[C@@H](C)[C@H]1CC[C@H]2[C@@H]3CC=C4C[C@@H](OC(=O)CCC(=O)N(CCCCCCCC(C)(C)N)CCC(C)(C)N)CC[C@]4(C)[C@H]3CC[C@]12C [SA164, (3S,8S,9S,10R,13R,14S,17R)-10,13-dimethyl-17-((R)-6-methylheptan-2-yl)-2,3,4,7,8,9,10,11,12,13,14,15,16,17-tetradecahydro-1H-cyclopenta[a]phenanthren-3-yl 4-((3-amino-3-methylbutyl)(8-amino-8-methylnonyl)amino)-4-oxobutanoate dihydrochloride] | 16.2 ± 0.7 fold-change | 72.5 nm | 0.14 | 73 nm | 0.14 | 17129.2 ± 2374.1 Relative Light Units | 99.2% | 98.0%
CC[C@H](CC[C@@H](C)[C@H]1CC[C@H]2[C@@H]3CC=C4C[C@@H](OC(=O)CCC(=O)N(CCCCCCCC(C)(C)N)CCC(C)(C)N)CC[C@]4(C)[C@H]3CC[C@]12C)C(C)C [SA165, (3S,8S,9S,10R,13R,14S,17R)-17-((2R,5R)-5-ethyl-6-methylheptan-2-yl)-10,13-dimethyl-2,3,4,7,8,9,10,11,12,13,14,15,16,17-tetradecahydro-1H-cyclopenta[a]phenanthren-3-yl 4-((3-amino-3-methylbutyl)(8-amino-8-methylnonyl)amino)-4-oxobutanoate dihydrochloride] | 14.0 ± 0.5 fold-change | 69.8 nm | 0.12 | 72 nm | 0.13 | 33585.6 ± 7766.5 Relative Light Units | 98.8% | 98.8%
